This note sets out measurements from US6653338B2 (Applied Research Systems ARS Holding N.A., priority 1998, dated 2003).

SMILES strings stand for the structures.

For assay [1], the target named is T1, recombinant FSH receptor stably transfected and expressed in Chinese Hamster Ovary cells (Homo sapiens, UniProt P23945).
T1 construct: expressed in transfected cells; host or cells: Chinese Hamster Ovary (CHO) cells, stably transfected, with CRE-luciferase reporter
T1 sequence (P23945 18-695): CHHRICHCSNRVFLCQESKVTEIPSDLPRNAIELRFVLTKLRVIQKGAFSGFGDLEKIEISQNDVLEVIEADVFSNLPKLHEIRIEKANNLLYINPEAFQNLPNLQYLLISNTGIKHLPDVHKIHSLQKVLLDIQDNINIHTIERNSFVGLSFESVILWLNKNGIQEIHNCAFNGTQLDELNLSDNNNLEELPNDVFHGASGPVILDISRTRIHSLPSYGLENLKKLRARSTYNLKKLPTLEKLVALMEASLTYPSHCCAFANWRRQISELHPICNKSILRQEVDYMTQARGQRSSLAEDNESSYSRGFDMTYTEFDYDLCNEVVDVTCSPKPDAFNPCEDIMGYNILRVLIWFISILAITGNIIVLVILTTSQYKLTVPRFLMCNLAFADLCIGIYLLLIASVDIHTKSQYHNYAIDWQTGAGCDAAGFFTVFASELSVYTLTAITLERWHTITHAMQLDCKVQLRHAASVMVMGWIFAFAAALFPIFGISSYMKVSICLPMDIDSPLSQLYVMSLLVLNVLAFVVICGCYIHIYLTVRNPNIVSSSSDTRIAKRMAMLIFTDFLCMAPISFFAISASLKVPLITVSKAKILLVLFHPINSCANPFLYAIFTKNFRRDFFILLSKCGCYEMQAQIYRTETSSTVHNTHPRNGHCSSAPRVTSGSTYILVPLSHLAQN
The experiment in a line: FSH assay: CHO luciferase FSHR (CRE-luciferase reporter, LDR curves). It counts as cell-based. The following applies: FIG. 6, from the graph; duplicate samples; luciferase luminescence in CHO FSHR cells. Background: Reporter assays use an easily measured gene product as a stand-in for the process of interest.
Source text: Compounds were screened for agonist activity at the FSH receptor using the recombinant FSH receptor stably transfected and expressed in Chinese Hamster Ovary cells (CHO cells) essentially as described in the work by Kelton, et al. (Molecular and Cellular Endocrinology, 1992, 89, 141-151). […] An agonist at the FSH receptor increases cAMP in the cell, which results in activation of CREB (cAMP response element binding protein). This molecule interacts with the CRE element upstream of the gene and results in increased transcription of the genes downstream of the element. The substrate for luciferase (Packard Instrument Company, Meriden, Conn., U.S.A.) was added to the cells after appropriate incubation with the compounds of the invention or FSH (used as a positive control). The amount of luciferase expressed was measured by quantitating the luminescence produced by the enzyme using a TopCount scintillation/luminescence counter running in single photon counting mode. A compound that acts as an agonist at the receptor should produce light from the treated cells in proportion to its concentration within the incubation. Luminescence should be saturable at high concentrations of the compound.
The compounds of the invention, in deepwell plates (Master plates) were loaded on the robotic deck along with the appropriate number of assay plates and daughter plates. A 10 μl aliquot from each master plate was transferred to the corresponding daughter plate and 90 μl of DME/F12 was added and mixed within each well. 20 μl was then removed from the daughter plate and dispensed into the assay plate. […] 100 μl of Luclite (prepared as described by the manufacturer) was added to each well and the plate was shaken gently for 40 s prior to placement in the Topcount plate reader. After allowing 3.5 min for the plate to dark-adapt within the machine, the amount of luminescence generated was quantitated using Single Photon Counting mode. […]

Assay [2] relates to primary rat granulosa cells. The assay can be described thus: primary rat granulosa cell bioassay (estradiol production by RIA). It is filed as cell-based. The settings on record: FIG. 7; for estradiol production versus dose: concentrations between 200 nM and 5 μM, decrease in production above this concentration; for EC50: Rattus norvegicus, estradiol in cell supernatants by RIA, read-out: EC50 of stimulated estradiol production. How it is done:
In this in vitro assay, conversion of androstendione to estrogen by granulosa cells in the presence of FSH was measured for compounds XVI and XVII. For comparison, FSH was also tested in the assay.
Cells were plated at 5000, 8000, 10,000 and 20,000 cells/ well/ 200 μl of GAB medium on poly-D-lysine-coated 96-well tissue culture plates. Plates were incubated at 37° C. in a 5% CO2/95% air incubator for 3 days. Cultures were washed prior to stimulation with FSH or LH. 50 μl of 4 X concentrations of rhFSH, rhLH or forskolin was added to the cultures. To define the range of the dose response curve the rhFSH was diluted so that the final concentration on the cells was between 10^−7 to 10^−15 M with three doses per log at 1, 2 and 5. Forskolin was diluted so that the final concentration on the cells was 1 μM. Cells were incubated @ 37° C. in 5% CO2. Three days later, cell supernatants were collected and diluted 1:100 in GAB medium for measurement of estradiol by RIA. The RIA was performed according to manufacturer's directions except that an estradiol standard was prepared in absolute ethanol at 100 ng/mL and then further diluted in GAB medium, instead of kit buffer. The concentration of hormone was plotted on the X-axis against the amount of estradiol produced by the cells on the Y-axis using Origin graphics software.
Results of the assay using media only are also shown.

As usually defined, the EC50 is the concentration giving half of the maximal effect. Take `CCCCCc1ccc(C(=O)N2CCCCC2C(=O)Nc2ccc3c(c2)c2ccccc2n3CC)c(=O)o1` (stereo not shown) [compound XVII, 1-[(2-Oxo-6-pentyl-2H-pyran)-3-carbonyl]piperidine-2-carboxylic acid-3-(9-ethylcarbazolyl)amide]: the concentration giving a half-maximal response (EC50) in assay [1] amounted to 3.9 nM; in assay [2], 1200 nM. Also, the “estradiol production versus dose” value in assay [2] was “increasing estradiol production with increasing dose”.

As to `CCCCCc1ccc(C(=O)N2CCCC2C(=O)Nc2ccc3c(c2)c2ccccc2n3CC)c(=O)o1` (stereo not shown) [compound XVI, 1-[(2-Oxo-6-pentyl-2H-pyran)-3-carbonyl]pyrrolidine-2-carboxylic acid-3-(9-ethylcarbazolyl)amide], the concentration giving a half-maximal response (EC50) in assay [1] is on record as 38.8 nM. In addition, in assay [2], the “estradiol production versus dose” value is listed as “increasing estradiol production with increasing dose” and the half-maximal effective concentration (EC50) turned out to be 1400 nM.

As to `CCCCCc1ccc(C(=O)N2CC(O)CC2C(=O)Nc2ccc3c(c2)c2ccccc2n3CC)c(=O)o1` (stereo not shown) [compound XIX, 1-[(2-Oxo-6-pentyl-2H-pyran)-3-carbonyl]-4-hydroxypyrrolidine2-carboxylic acid-3-(9-ethylcarbazolyl)amide], the concentration giving a half-maximal response (EC50) in assay [1] was found to be 1120 nM.
